System: 266295-075-R-J1-PDC spheroid viability
Assay: Anticancer human tumor 266295-075-R-J1-PDC patient-derived head and neck squamous carcinoma cell line growth inhibition [POLQ]
Settings: spheroids with HUVEC and MSC; for IC50: curve of first compound; for viability, T/C: stronger effect = lower value
How it was run: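 Three-cell-type spheroids modelling solid tumor plus stroma served as the readout system; POL inhibitors were tested individually and in combination, concentration ranges set by clinical Cmax where known.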
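Note: spheroids exposed to compounds for seven days before readout.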

CC(=O)O[C@H]1C(=O)[C@@]2(C)[C@H]([C@H](OC(=O)c3ccccc3)[C@]3(O)C[C@H](OC(=O)[C@H](O)[C@@H](NC(=O)c4ccccc4)c4ccccc4)C(C)=C1C3(C)C)[C@]1(OC(C)=O)CO[C@@H]1C[C@@H]2O + COC1C(OC(N)=O)C(O)C(Oc2ccc3c(O)c(NC(=O)c4ccc(O)c(CC=C(C)C)c4)c(=O)oc3c2C)OC1(C)C
IC50 (second compound 0.0316 µM): > 3000 nM | IC50 (second compound 0.1 µM): > 3000 nM | IC50 (second compound 0.316 µM): > 3000 nM | IC50 (second compound 1 µM): > 3000 nM | IC50 (second compound 3.16 µM): > 3000 nM | IC50 (second compound 10 µM): > 3000 nM | viability, T/C (second compound 0.0316 µM, first compound 0.00949 µM): 79.5% | viability, T/C (second compound 0.0316 µM, first compound 0.03 µM): 69.1% | viability, T/C (second compound 0.0316 µM, first compound 0.0949 µM): 63.3% | viability, T/C (second compound 0.0316 µM, first compound 0.3 µM): 86.2% | viability, T/C (second compound 0.0316 µM, first compound 0.949 µM): 75.6% | viability, T/C (second compound 0.0316 µM, first compound 3 µM): 71.3% | viability, T/C (second compound 0.1 µM, first compound 0.00949 µM): 92.3% | viability, T/C (second compound 0.1 µM, first compound 0.03 µM): 79% | viability, T/C (second compound 0.1 µM, first compound 0.0949 µM): 61.2% | viability, T/C (second compound 0.1 µM, first compound 0.3 µM): 73.2% | viability, T/C (second compound 0.1 µM, first compound 0.949 µM): 78.1% | viability, T/C (second compound 0.1 µM, first compound 3 µM): 69% | viability, T/C (second compound 0.316 µM, first compound 0.00949 µM): 93.6% | viability, T/C (second compound 0.316 µM, first compound 0.03 µM): 73.4% | viability, T/C (second compound 0.316 µM, first compound 0.0949 µM): 66.5% | viability, T/C (second compound 0.316 µM, first compound 0.3 µM): 67.4% | viability, T/C (second compound 0.316 µM, first compound 0.949 µM): 72.1% | viability, T/C (second compound 0.316 µM, first compound 3 µM): 81.2% | viability, T/C (second compound 1 µM, first compound 0.00949 µM): 76.9% | viability, T/C (second compound 1 µM, first compound 0.03 µM): 70% | viability, T/C (second compound 1 µM, first compound 0.0949 µM): 67.8% | viability, T/C (second compound 1 µM, first compound 0.3 µM): 80.7% | viability, T/C (second compound 1 µM, first compound 0.949 µM): 77.3% | viability, T/C (second compound 1 µM, first compound 3 µM): 65% | viability, T/C (second compound 3.16 µM, first compound 0.00949 µM): 81.9% | viability, T/C (second compound 3.16 µM, first compound 0.03 µM): 83.6% | viability, T/C (second compound 3.16 µM, first compound 0.0949 µM): 62.5% | viability, T/C (second compound 3.16 µM, first compound 0.3 µM): 75.5% | viability, T/C (second compound 3.16 µM, first compound 0.949 µM): 71.3% | viability, T/C (second compound 3.16 µM, first compound 3 µM): 75.2% | viability, T/C (second compound 10 µM, first compound 0.00949 µM): 85.6% | viability, T/C (second compound 10 µM, first compound 0.03 µM): 72.3% | viability, T/C (second compound 10 µM, first compound 0.0949 µM): 62.8% | viability, T/C (second compound 10 µM, first compound 0.3 µM): 60.5% | viability, T/C (second compound 10 µM, first compound 0.949 µM): 75.5% | viability, T/C (second compound 10 µM, first compound 3 µM): 74.7%

CC1COCCN1c1cc(-c2ccnn2C)c2ccnc(-c3ccn[nH]3)c2n1 (centres undefined) + Nc1ccc(C#CCN(C(=O)Cc2ncc(C(F)(F)F)cc2C(F)(F)F)c2ccc(F)cc2)nn1
IC50 (second compound 0.0316 µM): 3040 nM | IC50 (second compound 0.1 µM): 2550 nM | IC50 (second compound 0.316 µM): 284 nM | IC50 (second compound 1 µM): 1290 nM | IC50 (second compound 3.16 µM): 2020 nM | IC50 (second compound 10 µM): 1140 nM | viability, T/C (second compound 0.0316 µM, first compound 0.0316 µM): 92.3% | viability, T/C (second compound 0.0316 µM, first compound 0.1 µM): 73.2% | viability, T/C (second compound 0.0316 µM, first compound 0.316 µM): 78% | viability, T/C (second compound 0.0316 µM, first compound 1 µM): 63.6% | viability, T/C (second compound 0.0316 µM, first compound 3.16 µM): 46.9% | viability, T/C (second compound 0.0316 µM, first compound 10 µM): 36.5% | viability, T/C (second compound 0.1 µM, first compound 0.0316 µM): 92.1% | viability, T/C (second compound 0.1 µM, first compound 0.1 µM): 84.4% | viability, T/C (second compound 0.1 µM, first compound 0.316 µM): 69.1% | viability, T/C (second compound 0.1 µM, first compound 1 µM): 57.5% | viability, T/C (second compound 0.1 µM, first compound 3.16 µM): 52.2% | viability, T/C (second compound 0.1 µM, first compound 10 µM): 34.3% | viability, T/C (second compound 0.316 µM, first compound 0.0316 µM): 90.2% | viability, T/C (second compound 0.316 µM, first compound 0.1 µM): 86.1% | viability, T/C (second compound 0.316 µM, first compound 0.316 µM): 44.8% | viability, T/C (second compound 0.316 µM, first compound 1 µM): 55.6% | viability, T/C (second compound 0.316 µM, first compound 3.16 µM): 42.3% | viability, T/C (second compound 0.316 µM, first compound 10 µM): 42.5% | viability, T/C (second compound 1 µM, first compound 0.0316 µM): 85% | viability, T/C (second compound 1 µM, first compound 0.1 µM): 76.3% | viability, T/C (second compound 1 µM, first compound 0.316 µM): 59.1% | viability, T/C (second compound 1 µM, first compound 1 µM): 52.1% | viability, T/C (second compound 1 µM, first compound 3.16 µM): 46.2% | viability, T/C (second compound 1 µM, first compound 10 µM): 26.8% | viability, T/C (second compound 3.16 µM, first compound 0.0316 µM): 103% | viability, T/C (second compound 3.16 µM, first compound 0.1 µM): 83.8% | viability, T/C (second compound 3.16 µM, first compound 0.316 µM): 74% | viability, T/C (second compound 3.16 µM, first compound 1 µM): 60.7% | viability, T/C (second compound 3.16 µM, first compound 3.16 µM): 43.1% | viability, T/C (second compound 3.16 µM, first compound 10 µM): 30.7% | viability, T/C (second compound 10 µM, first compound 0.0316 µM): 97.2% | viability, T/C (second compound 10 µM, first compound 0.1 µM): 91.9% | viability, T/C (second compound 10 µM, first compound 0.316 µM): 69.5% | viability, T/C (second compound 10 µM, first compound 1 µM): 54.7% | viability, T/C (second compound 10 µM, first compound 3.16 µM): 35.8% | viability, T/C (second compound 10 µM, first compound 10 µM): 35.6%

— PubChem BioAssay AID1963853 (Molecular Pharmacology Branch, DTP, NCI, 2024)
